Assay type in all cases: functional, cell-based
In one assay the test system is K562. Briefly: Cytotoxicity against human K562 cells after 72 hrs by SRB assay. Particulars: K562, 72 h.
The next assay concerns A549. Briefly: Cytotoxicity against human A549 cells after 72 hrs by SRB assay. Particulars: A549, 72 h.
The next assay relates to HT-29. Briefly: Cytotoxicity against human HT29 cells after 72 hrs by SRB assay. The note with it: HT-29, 72 h.

As for `C=C1C(=O)[C@]23C[C@@H](O)[C@H]1C[C@H]2[C@]1(C)CCC[C@](C)(CO)[C@H]1C[C@H]3O` [ALBOATISIN C], the IC50 in the assay on K562 came to 28 µM; with A549, 12.5 µM; in the assay with HT-29 it was 20.6 µM.

Turning to `C=C1C(=O)[C@@]23[C@H](O)C[C@@H]4[C@@](C)(CO)CCC[C@@]4(C)[C@@H]2C[C@@H]1[C@H](O)[C@H]3O` [ALBOATISINS A], the figures for the IC50 in the assay with K562, in the assay on A549 and with HT-29 were 24.6 µM, 10.5 µM and 15.6 µM, respectively.

As for `C=C1C(=O)[C@@]23[C@H](O)C[C@H]4[C@@](C)(CCC[C@]4(C)C=O)[C@@H]2C[C@@H]1[C@H](O)[C@H]3O` [ALBOATISINS B], the concentration for half-maximal inhibition (IC50) came to 13.6 µM in the assay with K562, 8.3 µM in the assay on A549 and 7.9 µM with HT-29.

For the origin of these results see ChEMBL document CHEMBL1143680, “Alboatisins A-C, ent-atisene diterpenoids from Isodon albopilosus” (J Nat Prod, 2007).
